The test system of experiment [1] is HCT-116. Nature of the experiment: Antiproliferative activity against human HCT116 cells after 72 hrs by phosphatase assay. It counts as functional, cell-based. The settings on record: HCT-116, 72 h.
Experiment [2] is described as follows: Cytotoxicity against human HCT116/VM46 cells assessed as reduction in cell viability after 72 hrs by phosphatase assay. It is filed as cell-based. The settings on record: HCT-116/VM46, 72 h.
Experiment [3] concerns L1210. As to the kind of experiment: Antiproliferative activity against mouse L1210 cells after 72 hrs by phosphatase assay. It is filed as functional, cell-based. The following applies: L1210, 72 h.

Experimental findings from ChEMBL document CHEMBL4017512 (J Med Chem, 2017) are described below.

In general, IC50 refers to the midpoint of a concentration-inhibition curve. As for `CCCCCCCC(=O)N[C@@]1(CC)C[C@H]2CN(CCc3c([nH]c4ccccc34)[C@@](C(=O)OC)(c3cc4c(cc3OC)N(C)[C@H]3[C@@](O)(C(=O)OC)[C@H](OC(C)=O)[C@]5(CC)C=CCN6CC[C@]43[C@@H]65)C2)C1`, the half-maximal inhibitory concentration (IC50) in experiment [1] stood at 60 nM; in experiment [2] it was 420 nM; in experiment [3], 50 nM.
In the same order, the values of `CC[C@]1(NC(=O)/C=C/c2ccco2)C[C@H]2CN(CCc3c([nH]c4ccccc34)[C@@](C(=O)OC)(c3cc4c(cc3OC)N(C)[C@H]3[C@@](O)(C(=O)OC)[C@H](OC(C)=O)[C@]5(CC)C=CCN6CC[C@]43[C@@H]65)C2)C1` are 1.3 nM, 30 nM and 1.3 nM.
In the same order, the values of `CC[C@]1(NC(=O)c2ccccc2Cl)C[C@H]2CN(CCc3c([nH]c4ccccc34)[C@@](C(=O)OC)(c3cc4c(cc3OC)N(C)[C@H]3[C@@](O)(C(=O)OC)[C@H](OC(C)=O)[C@]5(CC)C=CCN6CC[C@]43[C@@H]65)C2)C1` are 55 nM, 390 nM and 50 nM.
For `CC[C@]1(NC(=O)c2cccs2)C[C@H]2CN(CCc3c([nH]c4ccccc34)[C@@](C(=O)OC)(c3cc4c(cc3OC)N(C)[C@H]3[C@@](O)(C(=O)OC)[C@H](OC(C)=O)[C@]5(CC)C=CCN6CC[C@]43[C@@H]65)C2)C1`, the results for the IC50 in experiment [1], in experiment [2] and in experiment [3] were 0.6 nM, 6.7 nM and 0.6 nM, respectively.
Consider `CC[C@]1(NC(=O)c2ccc(OC(C)(C)C)cc2)C[C@H]2CN(CCc3c([nH]c4ccccc34)[C@@](C(=O)OC)(c3cc4c(cc3OC)N(C)[C@H]3[C@@](O)(C(=O)OC)[C@H](OC(C)=O)[C@]5(CC)C=CCN6CC[C@]43[C@@H]65)C2)C1`, for which the results for the 50% inhibitory concentration (IC50) in experiment [1], in experiment [2] and in experiment [3] were 0.6 nM, 6.8 nM and 0.6 nM, respectively.
Regarding `CC[C@]1(NC(=O)c2ccc(OC)c(Cl)c2)C[C@H]2CN(CCc3c([nH]c4ccccc34)[C@@](C(=O)OC)(c3cc4c(cc3OC)N(C)[C@H]3[C@@](O)(C(=O)OC)[C@H](OC(C)=O)[C@]5(CC)C=CCN6CC[C@]43[C@@H]65)C2)C1`, the IC50 in experiment [1] came to 5.1 nM; in experiment [2] it was 8.9 nM; in experiment [3], 3.7 nM.
Take `CCOc1ccc(C(=O)N[C@@]2(CC)C[C@H]3CN(CCc4c([nH]c5ccccc45)[C@@](C(=O)OC)(c4cc5c(cc4OC)N(C)[C@H]4[C@@](O)(C(=O)OC)[C@H](OC(C)=O)[C@]6(CC)C=CCN7CC[C@]54[C@@H]76)C3)C2)cc1Cl`: the values for the IC50 in experiment [1], in experiment [2] and in experiment [3] were 6.1 nM, 40 nM and 4.2 nM, respectively.
In the same order, the values of `CC[C@]1(NC(=O)c2ccc(Br)c(Br)c2)C[C@H]2CN(CCc3c([nH]c4ccccc34)[C@@](C(=O)OC)(c3cc4c(cc3OC)N(C)[C@H]3[C@@](O)(C(=O)OC)[C@H](OC(C)=O)[C@]5(CC)C=CCN6CC[C@]43[C@@H]65)C2)C1` are 40 nM, 80 nM and 60 nM.
With `CC[C@]1(NC(=O)c2ccc(CNC(=O)OC(C)(C)C)cc2)C[C@H]2CN(CCc3c([nH]c4ccccc34)[C@@](C(=O)OC)(c3cc4c(cc3OC)N(C)[C@H]3[C@@](O)(C(=O)OC)[C@H](OC(C)=O)[C@]5(CC)C=CCN6CC[C@]43[C@@H]65)C2)C1`, the results for the 50% inhibitory concentration (IC50) in experiment [1], in experiment [2] and in experiment [3] were 0.7 nM, 50 nM and 0.76 nM, respectively.
In the same order, the values of `CC[C@]1(NC(=O)C(c2ccccc2)c2ccccc2)C[C@H]2CN(CCc3c([nH]c4ccccc34)[C@@](C(=O)OC)(c3cc4c(cc3OC)N(C)[C@H]3[C@@](O)(C(=O)OC)[C@H](OC(C)=O)[C@]5(CC)C=CCN6CC[C@]43[C@@H]65)C2)C1` are 3800 nM, 5100 nM and 760 nM.
For `CC[C@]1(NC(=O)c2ccc3cnccc3c2)C[C@H]2CN(CCc3c([nH]c4ccccc34)[C@@](C(=O)OC)(c3cc4c(cc3OC)N(C)[C@H]3[C@@](O)(C(=O)OC)[C@H](OC(C)=O)[C@]5(CC)C=CCN6CC[C@]43[C@@H]65)C2)C1`, in that order: 0.6 nM, 7.3 nM and 0.6 nM.
In the same order, the values of `CC[C@]1(NC(=O)c2cc(OC)c(OC)c(OC)c2)C[C@H]2CN(CCc3c([nH]c4ccccc34)[C@@](C(=O)OC)(c3cc4c(cc3OC)N(C)[C@H]3[C@@](O)(C(=O)OC)[C@H](OC(C)=O)[C@]5(CC)C=CCN6CC[C@]43[C@@H]65)C2)C1` are 0.1 nM, 2.4 nM and 0.09 nM.
As to `CC[C@]1(NC(=O)/C=C/c2ccccc2)C[C@H]2CN(CCc3c([nH]c4ccccc34)[C@@](C(=O)OC)(c3cc4c(cc3OC)N(C)[C@H]3[C@@](O)(C(=O)OC)[C@H](OC(C)=O)[C@]5(CC)C=CCN6CC[C@]43[C@@H]65)C2)C1`, the half-inhibitory concentration (IC50) in experiment [1] came to 0.9 nM; in experiment [2], 20 nM; in experiment [3], 0.8 nM.
Take `CC[C@]1(NC(=O)c2ccc(N)c(C)c2)C[C@H]2CN(CCc3c([nH]c4ccccc34)[C@@](C(=O)OC)(c3cc4c(cc3OC)N(C)[C@H]3[C@@](O)(C(=O)OC)[C@H](OC(C)=O)[C@]5(CC)C=CCN6CC[C@]43[C@@H]65)C2)C1`: the IC50 in experiment [1] was 0.6 nM; in experiment [2], 7.8 nM; in experiment [3], 0.6 nM.
`CC[C@]1(NC(=O)c2ccc(OC(F)(F)F)cc2)C[C@H]2CN(CCc3c([nH]c4ccccc34)[C@@](C(=O)OC)(c3cc4c(cc3OC)N(C)[C@H]3[C@@](O)(C(=O)OC)[C@H](OC(C)=O)[C@]5(CC)C=CCN6CC[C@]43[C@@H]65)C2)C1`: the concentration for half-maximal inhibition (IC50) came to 4.4 nM in experiment [1], 8.4 nM in experiment [2] and 5.9 nM in experiment [3].
In the same order, the values of `CC[C@]1(NC(=O)c2ccc(SC(C)C)cc2)C[C@H]2CN(CCc3c([nH]c4ccccc34)[C@@](C(=O)OC)(c3cc4c(cc3OC)N(C)[C@H]3[C@@](O)(C(=O)OC)[C@H](OC(C)=O)[C@]5(CC)C=CCN6CC[C@]43[C@@H]65)C2)C1` are 4.6 nM, 55 nM and 4.3 nM.
Take `CC[C@]1(NC(=O)c2ccccc2C(F)(F)F)C[C@H]2CN(CCc3c([nH]c4ccccc34)[C@@](C(=O)OC)(c3cc4c(cc3OC)N(C)[C@H]3[C@@](O)(C(=O)OC)[C@H](OC(C)=O)[C@]5(CC)C=CCN6CC[C@]43[C@@H]65)C2)C1`: the values for the IC50 in experiment [1], in experiment [2] and in experiment [3] were 60 nM, 540 nM and 45 nM, respectively.
For `CC[C@]1(NC(=O)c2ccccc2F)C[C@H]2CN(CCc3c([nH]c4ccccc34)[C@@](C(=O)OC)(c3cc4c(cc3OC)N(C)[C@H]3[C@@](O)(C(=O)OC)[C@H](OC(C)=O)[C@]5(CC)C=CCN6CC[C@]43[C@@H]65)C2)C1`, in that order: 7.7 nM, 75 nM and 8.4 nM.
In the same order, the values of `CCC(=O)N[C@@]1(CC)C[C@H]2CN(CCc3c([nH]c4ccccc34)[C@@](C(=O)OC)(c3cc4c(cc3OC)N(C)[C@H]3[C@@](O)(C(=O)OC)[C@H](OC(C)=O)[C@]5(CC)C=CCN6CC[C@]43[C@@H]65)C2)C1` are 60 nM, 2100 nM and 60 nM.
Regarding `CC[C@]1(NC(=O)C2CCCC2)C[C@H]2CN(CCc3c([nH]c4ccccc34)[C@@](C(=O)OC)(c3cc4c(cc3OC)N(C)[C@H]3[C@@](O)(C(=O)OC)[C@H](OC(C)=O)[C@]5(CC)C=CCN6CC[C@]43[C@@H]65)C2)C1`, the IC50 was determined as 25 nM in experiment [1], 380 nM in experiment [2] and 30 nM in experiment [3].
For `CC[C@]1(NC(=O)c2ccc3ccoc3c2)C[C@H]2CN(CCc3c([nH]c4ccccc34)[C@@](C(=O)OC)(c3cc4c(cc3OC)N(C)[C@H]3[C@@](O)(C(=O)OC)[C@H](OC(C)=O)[C@]5(CC)C=CCN6CC[C@]43[C@@H]65)C2)C1`, in that order: 2.2 nM, 6.5 nM and 3.3 nM.
Turning to `CC[C@]1(NC(=O)c2cccc3ccccc23)C[C@H]2CN(CCc3c([nH]c4ccccc34)[C@@](C(=O)OC)(c3cc4c(cc3OC)N(C)[C@H]3[C@@](O)(C(=O)OC)[C@H](OC(C)=O)[C@]5(CC)C=CCN6CC[C@]43[C@@H]65)C2)C1`, the concentration for half-maximal inhibition (IC50) came to 65 nM in experiment [1], 220 nM in experiment [2] and 60 nM in experiment [3].
For `CC[C@]1(NC(=O)c2cnccn2)C[C@H]2CN(CCc3c([nH]c4ccccc34)[C@@](C(=O)OC)(c3cc4c(cc3OC)N(C)[C@H]3[C@@](O)(C(=O)OC)[C@H](OC(C)=O)[C@]5(CC)C=CCN6CC[C@]43[C@@H]65)C2)C1`, in that order: 20 nM, 550 nM and 40 nM.
In the same order, the values of `CC[C@]1(NC(=O)c2ccc3cc(NC(=O)OC(C)(C)C)ccc3c2)C[C@H]2CN(CCc3c([nH]c4ccccc34)[C@@](C(=O)OC)(c3cc4c(cc3OC)N(C)[C@H]3[C@@](O)(C(=O)OC)[C@H](OC(C)=O)[C@]5(CC)C=CCN6CC[C@]43[C@@H]65)C2)C1` are 6.5 nM, 60 nM and 5 nM.
In the same order, the values of `CC[C@]1(NC(=O)c2ccc(OC)cc2)C[C@H]2CN(CCc3c([nH]c4ccccc34)[C@@](C(=O)OC)(c3cc4c(cc3OC)N(C)[C@H]3[C@@](O)(C(=O)OC)[C@H](OC(C)=O)[C@]5(CC)C=CCN6CC[C@]43[C@@H]65)C2)C1` are 0.3 nM, 7.6 nM and 0.25 nM.
With `CC[C@]1(NC(=O)c2cscn2)C[C@H]2CN(CCc3c([nH]c4ccccc34)[C@@](C(=O)OC)(c3cc4c(cc3OC)N(C)[C@H]3[C@@](O)(C(=O)OC)[C@H](OC(C)=O)[C@]5(CC)C=CCN6CC[C@]43[C@@H]65)C2)C1`, the half-inhibitory concentration (IC50) was found to be 6.3 nM in experiment [1], 80 nM in experiment [2] and 5.6 nM in experiment [3].
